Measurements from US20170290814A1, “METHODS OF TREATMENT OF CHOLESTASIS AND FIBROSIS” (GENFIT, priority 2016, published 2017).

How the values were obtained:
[1] = test system: TGFβ1-induced expression of α-SMA protein in human cardiac fibroblasts (NHCF); test: α-SMA ELISA in TGFβ1-activated normal human cardiac fibroblasts; type: cell-based; conditions: TGFβ1 3 ng/ml, 48 h
Procedure: Cpd.5 was added to serum-deprived cardiac fibroblasts (NHCF) 1 hour before the activation with TGFβ1 (3 ng/ml). After 48 hours of incubation, the expression of α-SMA was measured by ELISA. The obtained values were transformed into percentage inhibition over TGFβ1 control. Data are presented as mean (triplicates)±standard deviation (SD). Statistical analyses were performed by one-way ANOVA followed by Bonferroni post-hoc tests, using Sigma Plot 11.0 software. [*: p<0.05; **: p<0.01; ***: p<0.001 (comparison versus TGFβ1 3 ng/mL group)].
The Normal Human Cardiac Fibroblasts (ventricle) (NHCF-V) (Lonza) were isolated from normal, adult heart tissue. Cells were cultured in Fibroblast Basal Medium (FBM) (Lonza cat #CC-3131) that was supplemented with FGM™-3 BulletKit™ kit (Lonza cat #CC-4525). The complete medium contains 10% fetal bovine serum. For the activation experiments with TGFβ1, the NHCF-V were plated at a density of 6×10^3 cells per well in 96-well plates. The next day, cell-culture medium was removed, and cells were washed with PBS (Invitrogen cat #14190). NHCF were deprived for 24 hours in serum-free, insulin-free and rhFGF-B-free medium. […]
The level of α-SMA was measured using a Sandwich ELISA. […]

[2] = test system: TGFβ1-induced expression of COL1A1 protein in human HSC; test: Col1α1 ELISA on supernatants of TGFβ1-activated human HSC; type: cell-based; conditions: 48 h
Procedure: The human primary hepatic stellate cells (hHSC) (Innoprot) were cultured in STeCM medium (ScienCell cat #5301) that was supplemented with 2% fetal bovine serum (FBS, ScienCell cat #0010), 1% penicillin/streptomycin (ScienCell cat #0503) and stellate cell growth supplement (SteCGS; ScienCell cat #5352). Cell culture flasks were coated with Poly-L Lysine (Sigma cat #P4707) for a better adherence.
The human primary hepatic stellate cells (hHSC) (Innoprot) were cultured under standard conditions, as described above. The cells were subsequently plated at a density of 2×10^4cells/well or 6,5×10^3 cells/well into 96-well or 384-well plates respectively. The next day, cell-culture medium was removed, and cells were washed with PBS (Invitrogen cat #14190). Then, hHSC were deprived for 24 hours in serum-free and SteCGS-free medium. For the treatments with compounds of formula (I), the serum-deprived hHSC were preincubated for 1 hour with the compounds followed by addition of the profibrogenic stimuli TGFβ1 (PeproTech cat #100-21, 1 ng/mL) in serum-free and SteCGS-free medium for an additional 48 hour period. At the end of treatment, the cell culture supernatants of treated-HSC were transferred into a new plate before storage at −20° C.The cells were washed with PBS (Invitrogen, cat #14190) before the addition of lysis buffer (CelLytic™ MT reagent; Sigma #C3228). Plates were then incubated for 30 min on ice using a plate shaker, before storage at −20° C.
The level of the human pro-Collagen α1 (col1α1) was measured using a Sandwich ELISA (R&D systems,). Briefly, the wells of an ELISA plate were first coated with the capture antibody at room temperature overnight. After 3 washes in PBS +0.05% Tween 20, a blocking solution consisting of PBS +1% BSA was added for one hour followed by another washing cycle. […]
Serum-deprived HSC were preincubated for 1 hour with RM-5061 before the activation with the profibrogenic cytokine TGFβ1 (1 ng/ml). After 48 hours of incubation, the cellular α-SMA content as well as secreted COL1A1 were measured by ELISA. […]

SMILES | effect on TGFβ1-induced α-SMA in human cardiac fibroblasts [1] | effect on COL1A1 in human HSC ([2]; TGFβ1 1 ng/ml) | IC50 ([2]; secreted COL1A1, TGFβ1 1 ng/ml) [µM] | Max % I Over TGFβ, COL1A1 ([2]; secreted COL1A1, TGFβ1 1 ng/ml) [%]
[2H]C([2H])([2H])C(=O)Oc1ccccc1C(=O)Nc1ncc([N+](=O)[O-])s1 [Cpd.5, 2-[(5-nitro-1,3-thiazol-2-yl)carbamoyl]phenyl (d3)ethanoate] | inhibits |  |  | 
CC(C)(C)[C@H](N)C(=O)Oc1ccccc1C(=O)Nc1ncc([N+](=O)[O-])s1 [RM-5061, (S)-2-(5-nitrothiazol-2-ylcarbamoyl)phenyl 2-amino-3,3-dimethylbutanoate] |  | reduced in a comparable manner | 2.67 | 43
